Assay results reported in PMC2720641 (Biochemistry, 2009).

Experiments:
mCOX-2 = target: T1, mCOX-2 (Mus musculus, UniProt Q05769); experiment: IC50 for inhibition of mCOX-2 oxygenation of AA after preincubation; format: biochemical, murine; settings: read-out: IC50 for inhibition of AA oxygenation; 2 min preincubation; 50 μM AA
T1 sequence (Q05769 18-604): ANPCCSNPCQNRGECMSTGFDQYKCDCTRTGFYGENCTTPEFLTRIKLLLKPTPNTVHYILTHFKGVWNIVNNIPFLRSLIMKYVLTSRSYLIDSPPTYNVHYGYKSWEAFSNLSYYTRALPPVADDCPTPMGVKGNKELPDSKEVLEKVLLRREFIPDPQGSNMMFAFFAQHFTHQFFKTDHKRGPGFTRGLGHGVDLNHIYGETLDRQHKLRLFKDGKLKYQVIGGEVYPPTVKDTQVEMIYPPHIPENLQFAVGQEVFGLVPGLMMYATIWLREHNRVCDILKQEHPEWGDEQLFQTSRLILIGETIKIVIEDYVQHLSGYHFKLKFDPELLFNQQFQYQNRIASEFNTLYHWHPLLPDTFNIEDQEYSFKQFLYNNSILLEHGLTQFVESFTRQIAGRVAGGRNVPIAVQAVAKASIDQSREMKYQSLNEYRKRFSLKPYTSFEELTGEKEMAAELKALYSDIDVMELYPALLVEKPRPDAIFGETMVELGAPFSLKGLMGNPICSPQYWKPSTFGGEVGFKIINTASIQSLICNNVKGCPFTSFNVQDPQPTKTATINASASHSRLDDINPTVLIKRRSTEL

murine COX-2 (mCOX-2) [1] = target: T2, murine COX-2 (mCOX-2) (Mus musculus, UniProt Q05769); experiment: Instantaneous inhibition of mCOX-2 oxygenation of AA; format: biochemical; settings: substrate AA
T2 sequence (Q05769 18-604): T1 sequence (Q05769 18-604)

murine COX-2 (mCOX-2) [2] = target: T2, murine COX-2 (mCOX-2); experiment: Instantaneous inhibition of mCOX-2 oxygenation of 2-AG; format: biochemical; settings: substrate 2-AG

Row | SMILES | IC50 (mCOX-2) [µM] | Mode of inhibition of AA oxygenation (murine COX-2 (mCOX-2) [1]) | Mode of inhibition of 2-AG oxygenation (murine COX-2 (mCOX-2) [2]) | Oxygenation of 2-AG at 5 μM inhibitor (murine COX-2 (mCOX-2) [2]; mefenamate 5 μM)
1 | COc1ccc2c(c1)c(CC(=O)O)cn2C(=O)c1ccc(Cl)cc1 [2′-des-methylindomethacin] | ~500 | – | – | –
2 | Cc1cccc(Nc2ccccc2C(=O)O)c1C [mefenamic acid] | – | competitive | noncompetitive | completely inhibited
